The nature of data set [1]: Solid form after open pan DSC heating, by powder XRD. In kind it is physicochemical. Here is the method:
X-ray diffraction data (e.g., FIGS. 1, 4, 6 and 8) were collected using a Philips X'Pert PW-3040-MPD X-ray diffractometer (Philips, Bothell, Wash.) set at 40 kV and 40 mA. Data was collected as a continuous scan at 0.02°/sec. between […].
DSC data (e.g., FIG. 10) were collected using a TA Instruments DSC 2920 Differential Scanning Calorimeter (TA Instruments, New Castle, Del.). Measurements were carried out in both closed pan and open pan modes on about 5-35 mg samples. The heating profile was from 25° C. to 170° C. at 5° C./min, or 25° C. to 120° C. at 5° C./min with a ten minute holding time at 120° C., or 25° C. to 135° C. at 5° C./min with a five minute holding time at 135° C., or 25° C. to 150° C. at 5° C./min with a one minute holding time at 150° C.
A micronized sample of apratastat polymorph form A was subjected to three separate DSC experiments performed in the open pan mode as described in Example 5 above using the 120° C., 135° C., and 150° C. heating profiles. Each sample was cooled to ambient temperature and then recovered for powder X-ray diffraction (XRD) analysis as described in Example 2.
A milled sample of apratastat polymorph form A was subjected to similar DSC conditions.

Data set [2] in a line: Solid form conversion under humidity / ambient conditions. In kind it is physicochemical. How it is done:
Polymorph form B is likely also an anhydrous form of apratastat. […] Form B disappears upon mild heating (e.g., at or above about 35° C.) under ambient humidity levels.

The subject of data set [3] is matrix metalloproteinase (MMP). The settings on record: cited from earlier work.
Data set [4] has as its system human synovium tissue explants from patients suffering from rheumatoid arthritis. In words: TNF-α secretion by human synovium tissue explants. Format: cell-based.
Data set [5] has as its target T1, TNF-α converting enzyme (TACE) (Homo sapiens, UniProt P78536). Conditions: as described in U.S. Pat. No. 6,225,311; cited from earlier work.
Data set [6] addresses T1, TNF-α converting enzyme (TACE). In words: TACE inhibition in vitro. Format: biochemical.
Data set [7] concerns TNF-α. In words: murine lipopolysaccharide (LPS) model. In kind it is in vivo.
The test system of data set [8] is TNF-α. In words: primate lipopolysaccharide (LPS) model. Format: in vivo.

Where two headings read alike, the source gives them in different places.

T1 sequence (P78536 215-824, species assumed): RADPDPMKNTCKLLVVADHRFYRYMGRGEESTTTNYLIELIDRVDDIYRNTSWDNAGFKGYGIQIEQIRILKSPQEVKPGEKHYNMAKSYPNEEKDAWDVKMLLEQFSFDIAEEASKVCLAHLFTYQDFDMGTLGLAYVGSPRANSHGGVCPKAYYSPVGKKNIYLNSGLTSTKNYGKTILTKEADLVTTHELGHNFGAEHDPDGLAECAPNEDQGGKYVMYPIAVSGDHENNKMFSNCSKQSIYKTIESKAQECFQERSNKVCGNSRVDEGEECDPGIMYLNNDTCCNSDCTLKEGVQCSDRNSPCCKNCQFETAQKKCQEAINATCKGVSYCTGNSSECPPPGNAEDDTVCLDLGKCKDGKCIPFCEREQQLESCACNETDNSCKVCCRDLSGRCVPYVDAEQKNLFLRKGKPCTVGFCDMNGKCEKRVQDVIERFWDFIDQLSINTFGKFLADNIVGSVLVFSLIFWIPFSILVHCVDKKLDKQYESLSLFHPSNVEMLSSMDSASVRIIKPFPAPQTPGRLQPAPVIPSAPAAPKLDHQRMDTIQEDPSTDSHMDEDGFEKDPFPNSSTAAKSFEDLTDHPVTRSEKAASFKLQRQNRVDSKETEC

On to `CC1(C)SCCN(S(=O)(=O)c2ccc(OCC#CCO)cc2)[C@H]1C(=O)NO` [apratastat polymorph form A, (3S)-N-hydroxy-4-({4-[(4-hydroxy-2-butynyl)oxy]phenyl}sulfonyl)-2,2-dimethyl-3-thiomorpholinecarboxamide], for which the “XRD form after heating” value in data set [1] (micronized sample, 120° C. heating profile, open pan) is “Form C”; in data set [1] (micronized sample, 135° C. heating profile, open pan), “Form C”; in data set [1] (micronized sample, 150° C. heating profile, open pan), “Amorphous”; in data set [1] (milled sample, 120° C. heating profile), “Form C + D”; in data set [1] (milled sample, 135° C. heating profile) it was “Form C + D”; in data set [1] (milled sample, 150° C. heating profile) it was “Form D”. In addition, the “solid form stability in low-moisture environment” value in data set [2] (about 4-5% relative humidity, at or near room temperature) was “a portion or all of the polymorph may convert to a new form (form B)”.
On to `CC1(C)SCCN(S(=O)(=O)c2ccc(OCC#CCO)cc2)[C@H]1C(=O)NO` [apratastat, (3S)-N-hydroxy-4-({4-[(4-hydroxy-2-butynyl)oxy]phenyl}sulfonyl)-2,2-dimethyl-3-thiomorpholinecarboxamide], for which, in data set [3], the “inhibition of MMP enzymes” value was “inhibitor”. Also, the “inhibition of TNF-α secretion” value in data set [4] is listed as “inhibits TNF-α secretion”. Further, the “inhibition of TACE” value in data set [5] is “inhibitor”; in data set [6], “potent, reversible, and competitive inhibitor”. The TNF-α inhibition result in data set [7] and in data set [8] was “potent TNF-α inhibitor” in each case.
Consider `CC1(C)SCCN(S(=O)(=O)c2ccc(OCC#CCO)cc2)[C@H]1C(=O)NO` [Form B, (3S)-N-hydroxy-4-({4-[(4-hydroxy-2-butynyl)oxy]phenyl}sulfonyl)-2,2-dimethyl-3-thiomorpholinecarboxamide], for which the “solid form stability under ambient conditions” value in data set [2] (ambient conditions, little or no energy input) is recorded as “can convert back to form A”. Also, the “solid form stability upon mild heating” value in data set [2] (at or above about 35° C., ambient humidity levels) is reported as “disappears”.

The record behind these values is patent US7435732B2, “Crystalline polymorphs of (3S)-N-hydroxy-4-({4-[-(4-hydroxy-2-butynyl)oxy]phenyl}sulfonyl)-2,2-dimethyl-3-thiomorpholine carboxamide” (Wyeth, priority 2004, dated 2008).
